Values joined by “and” are separate entries in the source; they are usually repeats but may differ in a detail not shown here. Identical values can stand only once. “Also recorded” adds a separate entry of the source. Counter-ions that a name gives are not always drawn.
Key:
Assay type in all cases: physicochemical
[1] = DVS test (dynamic vapor sorption, hygroscopicity); conditions: for hygroscopicity (in words): DVS
Experimental: All the three target forms remained no change after DVS test.
Dynamic Vapor Sorption (DVS) was used to study hygroscopicity on Model Q5000 SA (TA Instruments, New Castle, DE). A sample (1-10 mg) was placed in an aluminum pan and loaded on the sample side of the twin pan balance. The water sorption and desorption were studied as a function of relative humidity (RH) at 25° C. in 10% RH increments from 0% RH to 90% RH and then back to 0%. […] Data analysis was performed using Universal Analysis 2000 Version 4.7A (TA Instruments, New Castle, DE).

[2] = Solid-state stability at 60° C. (capped) and 40° C./75% RH (open); conditions: for XRPD - 7 d / physical and chemical stability: 7 days; for physical and chemical stability: 60° C. (capped) and 40° C./75% RH (open); for Initial Purity: before storage, HPLC
Experimental: (capped) and 40° C./75% RH (open) for 7 days. Duplicate samples were prepared at each condition. The stability sample was dissolved in diluent to prepare solution at ˜1 mg/mL for HPLC purity analysis. Solid samples were analyzed by XRPD to check the crystal form. […] (capped) and 40° C./75% RH (open) for at least 7 days.

[3] = Solubility in bio-relevant media (SGF, FaSSIF, FeSSIF) and water; conditions: for XRPD 0.5 h / XRPD 2 h / XRPD 24 h: filter cake; for solubility compared to Freebase Form I (in words): water, FaSSIF and FeSSIF, 37° C.
Experimental: At 0.5, 2 and 24 hours, about 0.6 mL of each suspension was filtered, the filtrate was analyzed by HPLC and pH meter, and the filter cake was analyzed by XRPD. The samples were prepared in duplicate (n=2) per condition. Average value (n=2) was presented.
HPLC analysis was performed with an Agilent HPLC 1260 series instrument.

[4] = FaSSIF, initial pH 6.45, 37° C., average n=2
[5] = FaSSIF, initial pH 6.45, filtrate
[6] = FeSSIF, initial pH 4.99, 37° C., average n=2
[7] = FeSSIF, initial pH 4.99, filtrate
[8] = Water, initial pH 5.41, 37° C., average n=2
[9] = Water, initial pH 5.41, filtrate
[10] = in FaSSIF and FeSSIF, XRPD of filter cake

C[C@@H]1[C@@H](Oc2ccc(C(=O)NC3CC3)nc2)CN1Cc1cnc2cc(Cl)c(=O)[nH]c2c1 [Hemiedisylate Salt Form II, 5-(((2R,3S)-1-((7-chloro-6-oxo-5,6-dihydro-1,5-naphthyridin-3-yl)methyl)-2-methylazetidin-3-yl)oxy)-N-cyclopropylpicolinamide]
hygroscopicity (in words) [1]: hygroscopic
water uptake ([1]; from 0 to 90% RH at 25° C.): about 3.6%

C[C@@H]1[C@@H](Oc2ccc(C(=O)NC3CC3)nc2)CN1Cc1cnc2cc(Cl)c(=O)[nH]c2c1 [L-Malate Salt Form II, 5-(((2R,3S)-1-((7-chloro-6-oxo-5,6-dihydro-1,5-naphthyridin-3-yl)methyl)-2-methylazetidin-3-yl)oxy)-N-cyclopropylpicolinamide]
hygroscopicity (in words) [1]: hygroscopic
water uptake ([1]; from 0 to 90% RH at 25° C.): about 4.6%

C[C@@H]1[C@@H](Oc2ccc(C(=O)NC3CC3)nc2)CN1Cc1cnc2cc(Cl)c(=O)[nH]c2c1 [L-Tartrate Salt Form II, 5-(((2R,3S)-1-((7-chloro-6-oxo-5,6-dihydro-1,5-naphthyridin-3-yl)methyl)-2-methylazetidin-3-yl)oxy)-N-cyclopropylpicolinamide]
hygroscopicity (in words) [1]: hygroscopic
water uptake ([1]; from 0 to 90% RH at 25° C.): about 10.2%

C[C@@H]1[C@@H](Oc2ccc(C(=O)NC3CC3)nc2)CN1Cc1cnc2cc(Cl)c(=O)[nH]c2c1 [Maleate Form IV, 5-(((2R,3S)-1-((7-chloro-6-oxo-5,6-dihydro-1,5-naphthyridin-3-yl)methyl)-2-methylazetidin-3-yl)oxy)-N-cyclopropylpicolinamide]
hygroscopicity (in words) [1]: slightly hygroscopic
water uptake ([1]; at 80% RH): < 1% and 0.6%
water uptake ([1]; at 90% RH): 0.9%
XRPD - 7 d ([2]; 40° C./75% RH (open)): Unchanged
physical and chemical stability [2]: physically and chemically stable
XRPD - 7 d ([2]; 60° C. (capped)): Unchanged
Initial Purity [2]: 99.72 area %
XRPD 0.5 h ([3]; FaSSIF): FB Form I
XRPD 2 h ([3]; FaSSIF): FB Form I
XRPD 24 h ([3]; FaSSIF): FB Form I
Solubility 0.5 h [3, 4]: 397 µg/mL
Solubility 2 h [3, 4]: 410 µg/mL
Solubility 24 h [3, 4]: 373 µg/mL
pH 0.5 h [3, 5]: 4.58
pH 2 h [3, 5]: 4.46
pH 24 h [3, 5]: 4.43
solubility at 24 h ([3]; FeSSIF, 37 °C, pH 4.99, fessif, thermodynamic from solid, initial pH 4.99, 37° C., average n=2): 131 µg/mL
XRPD 0.5 h ([3]; FeSSIF): FB Form I
XRPD 2 h ([3]; FeSSIF): FB Form I
XRPD 24 h ([3]; FeSSIF): FB Form I
Solubility 0.5 h [3, 6]: 369 µg/mL
Solubility 2 h [3, 6]: 159 µg/mL
pH 0.5 h [3, 7]: 4.82
pH 2 h [3, 7]: 4.82
pH 24 h [3, 7]: 4.79
XRPD 0.5 h, 2 h, 24 h ([3]; SGF): Clear
solubility ([3]; SGF, 37 °C, pH 1.23, simulated gastric fluid, thermodynamic from solid, SGF, initial pH 1.23, 37° C., read-out: Solubility 0.5 h, 2 h, 24 h): > 5000 µg/mL
pH 0.5 h ([3]; SGF, initial pH 1.23, filtrate): 1.33
pH 2 h ([3]; SGF, initial pH 1.23, filtrate): 1.17
pH 24 h ([3]; SGF, initial pH 1.23, filtrate): 1.22
XRPD 0.5 h, 2 h, 24 h ([3]; Water): Little solid
Solubility 0.5 h [3, 8]: 4527 µg/mL
Solubility 2 h [3, 8]: 4494 µg/mL
Solubility 24 h [3, 8]: 3797 µg/mL
pH 0.5 h [3, 9]: 3.81
pH 2 h [3, 9]: 3.75
pH 24 h [3, 9]: 3.90
form change of the solid [3, 10]: dissociated into Freebase Form I
solubility compared to Freebase Form I (in words) [3]: improved solubility

C[C@@H]1[C@@H](Oc2ccc(C(=O)NC3CC3)nc2)CN1Cc1cnc2cc(Cl)c(=O)[nH]c2c1 [Sulfate Salt Form III, 5-(((2R,3S)-1-((7-chloro-6-oxo-5,6-dihydro-1,5-naphthyridin-3-yl)methyl)-2-methylazetidin-3-yl)oxy)-N-cyclopropylpicolinamide]
hygroscopicity (in words) [1]: hygroscopic
water uptake ([1]; from 0 to 90% RH at 25° C.): about 6%

C[C@@H]1[C@@H](Oc2ccc(C(=O)NC3CC3)nc2)CN1Cc1cnc2cc(Cl)c(=O)[nH]c2c1 [Tartrate Form I, 5-(((2R,3S)-1-((7-chloro-6-oxo-5,6-dihydro-1,5-naphthyridin-3-yl)methyl)-2-methylazetidin-3-yl)oxy)-N-cyclopropylpicolinamide]
hygroscopicity (in words) [1]: slightly hygroscopic
hygroscopicity (in words) ([1]; listed as Tartrate Salt Form I): slightly hygroscopic
water uptake ([1]; at 80% RH): < 1% and 0.8%
water uptake ([1]; at 90% RH): 1.4%
water uptake ([1]; from 0 to 90% RH at 25° C., listed as Tartrate Salt Form I): about 1.1%
XRPD - 7 d ([2]; 40° C./75% RH (open)): Unchanged
physical and chemical stability [2]: physically and chemically stable
XRPD - 7 d ([2]; 60° C. (capped)): Unchanged
Initial Purity [2]: 99.64 area %
XRPD 0.5 h ([3]; FaSSIF): Amorphous
XRPD 2 h ([3]; FaSSIF): FB Form I
XRPD 24 h ([3]; FaSSIF): FB Form I
Solubility 0.5 h [3, 4]: 2088 µg/mL
Solubility 2 h [3, 4]: 1320 µg/mL
Solubility 24 h [3, 4]: 980 µg/mL
pH 0.5 h [3, 5]: 3.98
pH 2 h [3, 5]: 3.81
pH 24 h [3, 5]: 3.69
XRPD 0.5 h ([3]; FeSSIF): Amorphous
XRPD 2 h ([3]; FeSSIF): FB Form I
XRPD 24 h ([3]; FeSSIF): FB Form I
Solubility 0.5 h [3, 6]: 496 µg/mL
Solubility 2 h [3, 6]: 207 µg/mL
Solubility 24 h [3, 6]: 144 µg/mL
pH 0.5 h [3, 7]: 4.71
pH 2 h [3, 7]: 4.71
pH 24 h [3, 7]: 4.70
XRPD 0.5 h, 2 h, 24 h ([3]; SGF): Clear
Solubility 0.5 h, 2 h, 24 h ([3]; SGF, initial pH 1.23, 37° C.): >5000 µg/mL
pH 0.5 h ([3]; SGF, initial pH 1.23, filtrate): 1.32
pH 2 h ([3]; SGF, initial pH 1.23, filtrate): 1.17
pH 24 h ([3]; SGF, initial pH 1.23, filtrate): 1.25
XRPD 0.5 h ([3]; Water): Unchanged
XRPD 2 h ([3]; Water): Unchanged
Solubility 0.5 h [3, 8]: 4288 µg/mL
Solubility 2 h [3, 8]: 4422 µg/mL
Solubility 24 h [3, 8]: 293 µg/mL
pH 0.5 h [3, 9]: 3.63
pH 2 h [3, 9]: 3.58
pH 24 h [3, 9]: 3.73
form change of the solid [3, 10]: dissociated into Freebase Form I
conversion rate to the freebase (in words) ([3]; in FaSSIF and FeSSIF, compared with Maleate Form IV): slower conversion rate; also recorded: slower form conversion
form change of the solid ([3]; in water at 24 h): converted into a new pattern
solubility compared to Freebase Form I (in words) [3]: improved solubility

From US20240317746A1, “CRYSTALLINE FORMS OF AN AZETIDINE PARP1 INHIBITOR” (XinThera, Inc., priority 2023, published 2024)
